# Experimental data: patent US8975264B2, “Compound acting as a cannabinoid receptor-1 inhibitor” (Amorepacific Corporation, priority 2010, dated 2015)
# Target: human CB1 (cannabinoid receptor 1) (Homo sapiens, UniProt P21554)
# Assay: CB1 receptor inhibition effect: calcium ion influx assay (Fluo-4 NW) in Chem-1 cells after 1 μM R-(+)-WIN55212-2
# Assay type: cell-based
# Conditions: calcium ion influx in Chem-1 cells expressing human CB1, 1 μM R-(+)-WIN55212-2
# Description: When cells in which the cannabinoid receptor 1 (CB1) is stably expressed are treated with a CB1 receptor agonist, the CB1 receptor is activated and influx of calcium ions into the cells increases. CB1 receptor inhibition effect of a test compound can be evaluated by measuring the degree of calcium influx inhibition after treating with the test compound.
# First, Chem-1 cells (Chemicon International, #HTS019C) in which human CB1 cDNA is expressed stably were seeded onto a 96-well cell culture plate at a density of ˜50,000 cells/well and incubated overnight in a 5% CO2 incubator at 37° C. The next day, the culture medium was discarded and the cells were cautiously washed once using an assay buffer (HBSS containing 20 mM HEPES and 2.5 mM probenecid) with 200 μL/well. Calcium ion influx was measured using an assay kit (Fluo-4 NW calcium assay kit: Molecular Probes™, #F36206) according to the manufacturer's instructions. The compounds of Examples of desired concentration to be measured were comprised to 0.5% DMSO. For control, only 0.5% DMSO was used without the compounds of Examples. Reaction time was 10 minutes. After treating the Chem-1 cells stably expressing the CB1 receptor with 1 μM R-(+)-WIN55212-2 (Sigma, #W102), a CB1 receptor agonist, calcium ion (Ca^2+) flux induced thereby was measured for 80 seconds using Flex Station 3 (Molecular Device, USA).
# The difference in calcium ion concentration of the cells treated with the compounds of Examples or those treated with 1 μM R-(+)-WIN55212-2 was obtained from the difference of the maximum and minimum values during the 80 seconds. Then, % inhibition of the compounds for the CB1 receptor was calculated using the following equation. % inhibition={1−(ΔRFUcompound−ΔRFUBlank)/(ΔRFUControl−ΔRFUBlank)}×100 [Equation]
# ΔRFU: maximum relative fluorescence units−minimum relative fluorescence units
# ΔRFUCompound: difference in maximum and minimum RFUs in the well where the compounds of Examples dissolved in DMSO to a final concentration of 0.5% and 1 μM R-(+)-WIN55212-2 dissolved in DMSO to a final concentration of 0.5% were added
# ΔRFUBlank: difference in maximum and minimum RFUs in the well to which only 1% DMSO was added
# ΔRFUControl: difference in maximum and minimum RFUs in the well where 0.5% DMSO and 1 μM R-(+)-WIN55212-2 dissolved in DMSO to a final concentration of 0.5% were added
# Chain of human CB1 (cannabinoid receptor 1) (P21554 whole entry): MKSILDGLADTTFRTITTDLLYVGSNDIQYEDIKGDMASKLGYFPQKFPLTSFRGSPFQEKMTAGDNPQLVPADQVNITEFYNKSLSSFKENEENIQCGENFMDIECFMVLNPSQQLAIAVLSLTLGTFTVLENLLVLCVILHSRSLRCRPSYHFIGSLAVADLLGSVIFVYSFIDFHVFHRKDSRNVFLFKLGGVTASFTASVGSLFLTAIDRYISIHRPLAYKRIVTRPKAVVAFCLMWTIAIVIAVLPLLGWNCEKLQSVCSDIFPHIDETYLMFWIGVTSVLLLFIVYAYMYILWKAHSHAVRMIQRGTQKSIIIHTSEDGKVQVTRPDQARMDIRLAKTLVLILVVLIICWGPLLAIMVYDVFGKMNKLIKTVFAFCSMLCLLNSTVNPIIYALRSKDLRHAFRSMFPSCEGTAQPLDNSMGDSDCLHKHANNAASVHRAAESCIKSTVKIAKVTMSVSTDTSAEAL
row,IC50 [µM],SMILES
1,0.16,CCc1ccc(-c2c(C)nn3c(-c4cccc(F)c4)cc(N4CCC[C@H]4CO)nc23)cc1 [Example 116]
2,0.096,Cc1nn2c(-c3ccccc3)cc(N3CCC[C@H]3CO)nc2c1-c1ccc(Cl)cc1 [Example 5]
3,0.049,Cc1nn2c(-c3cccc(F)c3)cc(N3CCC[C@H]3CO)nc2c1-c1ccc2c(c1)OCO2 [Example 113]
4,0.3,CCOc1ccc(-c2c(C)nn3c(-c4ccc(F)cc4)cc(N4CCC[C@H]4CO)nc23)cc1F [Example 81]
5,0.006,CCOCc1nn2c(-c3cccc(C(F)(F)F)c3)cc(N3CCC[C@H]3CO)nc2c1-c1ccc(C)cc1 [Example 204]
6,0.13,"CCOc1ccc(-c2c(C)nn3c(-c4ccccc4)cc(N4CCC[C@H]4CO)nc23)cc1 [Example 47, (S)-(1-(3-(4-ethoxyphenyl)-7-phenyl-2-methylpyrazolo[1,5-a]pyrimidin-5-yl)pyrrolidin-2-yl)methanol]"
7,0.2,CCOc1ccc(-c2c(C)nn3c(-c4cc(F)cc(F)c4)cc(N4CCC[C@H]4CO)nc23)cc1 [Example 55]
8,0.17,CSc1ccc(-c2c(C)nn3c(-c4ccc(F)cc4)cc(N4CCC[C@H]4CO)nc23)cc1 [Example 68]
9,0.24,Cc1nn2c(-c3ccccc3F)cc(N3CCC[C@H]3CO)nc2c1-c1ccc2c(c1)OCO2 [Example 57]
10,0.09,"Cc1nn2c(-c3ccccc3)cc(N3CCC[C@H]3CO)nc2c1-c1ccc2c(c1)OCO2 [Example 56, (S)-(1-(3-(3,4-methylenedioxyphenyl)-7-(phenyl)-2-methylpyrazolo[1,5-a]pyrimidin-5-yl)pyrrolidin-2-yl)methanol]"
11,0.03,CCOCc1nn2c(-c3cccc(C)c3)cc(N3CCC[C@H]3CO)nc2c1-c1ccc(OC)cc1 [Example 220]
12,0.25,Cc1nn2c(-c3cccc(Cl)c3)cc(N3CCC[C@H]3CO)nc2c1-c1ccc(C(F)(F)F)cc1 [Example 173]
13,0.53,Cc1nn2c(-c3ccc(F)cc3)cc(N3CCC[C@H]3CO)nc2c1-c1ccc(OC(F)(F)F)cc1 [Example 84]
14,0.15,CCOCc1nn2c(-c3cccc(Cl)c3)cc(N3CCC[C@H]3CO)nc2c1-c1ccc2c(c1)OCO2 [Example 217]
15,0.006,COCc1nn2c(-c3cccc(C(F)(F)F)c3)cc(N3CCC[C@H]3CO)nc2c1-c1ccc(Cl)cc1 [Example 233]
16,0.19,COc1ccc(-c2c(C)nn3c(-c4ccc(F)c(Cl)c4)cc(N4CCC[C@H]4CO)nc23)cc1 [Example 46]
17,0.041,"Cc1ccc(-c2c(C)nn3c(-c4ccc(F)cc4)cc(N4CCC[C@H]4CO)nc23)cc1 [Example 63, (S)-(1-(3-(4-methylphenyl)-7-(4-fluorophenyl)-2-methylpyrazolo[1,5-a]pyrimidin-5-yl)pyrrolidin-2-yl)methanol]"
18,0.11,CSc1ccc(-c2c(C)nn3c(-c4cccc(C)c4)cc(N4CCC[C@H]4CO)nc23)cc1 [Example 162]
19,0.039,"COc1cccc(-c2cc(N3CCC[C@H]3CO)nc3c(-c4ccc(C)cc4)c(C)nn23)c1 [Example 25, (S)-(1-(3-(4-methylphenyl)-7-(3-methoxyphenyl)-2-methylpyrazolo[1,5-a]pyrimidin-5-yl)pyrrolidin-2-yl)methanol]"
20,0.2,CCCOc1ccc(-c2c(C)nn3c(-c4ccc(C)cc4)cc(N4CCC[C@H]4CO)nc23)cc1 [Example 194]
21,0.16,Cc1cc(-c2c(C)nn3c(-c4ccc(F)cc4)cc(N4CCC[C@H]4CO)nc23)ccc1F [Example 101]
22,0.07,CCOc1ccc(-c2c(C)nn3c(-c4cccc(C(F)(F)F)c4)cc(N4CCC[C@H]4CO)nc23)cc1 [Example 124]
23,0.028,"CCOCc1nn2c(-c3ccc(F)cc3)cc(N(C)CCO)nc2c1-c1ccc(C)cc1 [Example 239, 2-{[2-ethoxymethyl-7-(4-fluorophenyl)-3-(4-methylphenyl)-pyrazolo[1,5-a]pyrimidin-5-yl]methylamino}ethanol]"
24,0.22,CCc1ccc(-c2c(C)nn3c(-c4cccc(Cl)c4)cc(N4CCC[C@H]4CO)nc23)cc1 [Example 174]
25,0.1,"COc1ccc(-c2c(C)nn3c(-c4ccc(F)c(F)c4)cc(N4CCC[C@H]4CO)nc23)cc1 [Example 38, (S)-{1-[7-(3,4-difluorophenyl)-3-(4-methoxyphenyl)-2-methylpyrazolo[1,5-a]pyrimidin-5-yl)pyrrolidin-2-yl)methanol]"
26,0.08,"Cc1ccc(-c2c(C)nn3c(-c4cccc(F)c4)cc(N4CCC[C@H]4CO)nc23)cc1 [Example 110, (S)-(1-(3-(4-methylphenyl)-7-(3-fluorophenyl)-2-methylpyrazolo[1,5-a]pyrimidin-5-yl)pyrrolidin-2-yl)methanol]"

row,IC50 [µM],SMILES
1,0.1,CCOc1ccc(-c2c(C)nn3c(-c4ccc(F)cc4)cc(N4CCC[C@H]4CO)nc23)cc1 [Example 65]
2,0.077,Cc1nn2c(-c3cccc(F)c3)cc(N3CCC[C@H]3CO)nc2c1-c1ccc(C(F)F)cc1 [Example 114]
3,0.22,Cc1nn2c(-c3ccc(F)cc3)cc(N3CCC[C@H]3CO)nc2c1-c1ccccc1 [Example 83]
4,0.1,CCOCc1nn2c(-c3cccc(OC)c3)cc(N(C)CCO)nc2c1-c1ccc2c(c1)OCO2 [Example 252]
5,0.21,COc1ccc(-c2c(C)nn3c(-c4cccc(C(F)(F)F)c4)cc(N4CCC[C@H]4CO)nc23)cc1F [Example 138]
6,0.069,Cc1nn2c(-c3cccc(C(F)(F)F)c3)cc(N3CCC[C@H]3CO)nc2c1-c1ccc(C(F)F)cc1 [Example 126]
7,0.066,Cc1nn2c(-c3cccc(C(F)(F)F)c3)cc(N3CCC[C@H]3CO)nc2c1-c1ccc(C(F)(F)F)cc1 [Example 128]
8,0.24,COc1ccc(-c2cc(N3CCC[C@H]3CO)nc3c(-c4ccc(C)cc4)c(C)nn23)cc1 [Example 27]
9,0.24,CCOc1ccc(-c2c(C)nn3c(-c4cccc(Cl)c4)cc(N4CCC[C@H]4CO)nc23)cc1 [Example 171]
10,0.14,"COc1ccc(-c2c(C)nn3c(-c4ccccc4)cc(N4CCC[C@H]4CO)nc23)cc1 [Example 37, (S)-(1-(3-(4-methoxyphenyl)-7-phenyl-2-methylpyrazolo[1,5-a]pyrimidin-5-yl)pyrrolidin-2-yl)methanol]"
11,0.053,"Cc1ccc(-c2c(C)nn3c(-c4ccc(F)c(F)c4)cc(N4CCC[C@H]4CO)nc23)cc1 [Example 26, (S)-(1-(3-(4-methylphenyl)-7-(3,4-difluorophenyl)-2-methylpyrazolo[1,5-a]pyrimidin-5-yl)pyrrolidin-2-yl)methanol]"
12,0.1,Cc1ccc(-c2c(C)nn3c(-c4ccc(F)c(Cl)c4)cc(N4CCC[C@H]4CO)nc23)cc1 [Example 36]
13,0.35,Cc1nn2c(-c3ccc(F)cc3)cc(N3CCC[C@H]3CO)nc2c1-c1ccc(F)cc1F [Example 77]
14,0.16,CCCOc1ccc(-c2c(C)nn3c(-c4ccc(F)cc4)cc(N4CCC[C@H]4CO)nc23)cc1 [Example 74]
15,0.005,COCc1nn2c(-c3cccc(F)c3)cc(N3CCC[C@H]3CO)nc2c1-c1ccc(OC)cc1 [Example 223]
16,0.35,CCCc1ccc(-c2c(C)nn3c(-c4ccc(F)cc4)cc(N4CCC[C@H]4CO)nc23)cc1 [Example 72]
17,0.25,COc1ccc(-c2c(C)nn3c(-c4ccccc4F)cc(N4CCC[C@H]4CO)nc23)cc1 [Example 39]
18,0.024,COCc1nn2c(-c3cccc(C(F)(F)F)c3)cc(N3CCC[C@H]3CO)nc2c1-c1ccc2c(c1)OCO2 [Example 238]
19,0.13,CCOCc1nn2c(-c3cccc(Cl)c3)cc(N(C)CCO)nc2c1-c1ccc2c(c1)OCO2 [Example 254]
20,0.03,CCCCc1nn2c(-c3cccc(C)c3)cc(N3CCC[C@H]3CO)nc2c1-c1ccc(C)cc1 [Example 289]
21,0.082,Cc1ccc(-c2c(C)nn3c(-c4ccccc4F)cc(N4CCC[C@H]4CO)nc23)cc1 [Example 33]
22,0.17,"COc1ccc(-c2c(C)nn3c(-c4ccc(F)cc4)cc(N4CCC[C@H]4CO)nc23)cc1 [Example 64, (S)-(1-(3-(4-methoxyphenyl)-7-(4-fluorophenyl)-2-methylpyrazolo[1,5-a]pyrimidin-5-yl)pyrrolidin-2-yl)methanol]"
23,0.28,CCCOc1ccc(-c2c(C)nn3c(-c4cccc(C(F)(F)F)c4)cc(N4CCC[C@H]4CO)nc23)cc1 [Example 133]
24,0.12,Cc1nn2c(-c3cccc(C(F)(F)F)c3)cc(N3CCC[C@H]3CO)nc2c1-c1ccc(F)cc1F [Example 135]
25,0.12,Cc1nn2c(-c3cccc(C(F)(F)F)c3)cc(N3CCC[C@H]3CO)nc2c1-c1ccc(Cl)cc1 [Example 9]
26,0.22,Cc1ccc(-c2c(C)nn3c(-c4ccc(F)cc4F)cc(N4CCC[C@H]4CO)nc23)cc1 [Example 34]
